Source: EPA's ToxRefDB 2

Experiments:
rat [1] = conditions: Sub-acute repeat dose toxicity, Oral, Gavage/Intubation, dose end: 28 day, group: systemic
rat [2] = conditions: Sub-acute repeat dose toxicity, Oral, Gavage/Intubation, dose end: 7 day, group: systemic
dog [3] = conditions: Sub-acute repeat dose toxicity, beagle, Oral, Gavage/Intubation, dose end: 28 day, group: systemic
rabbit = conditions: Prenatal developmental toxicity study, new zealand white, Oral, Gavage/Intubation, dose end: 19 GD
dog [4] = conditions: Subchronic oral toxicity in nonrodent, beagle, Feed, dose end: 90 day, group: systemic, systemic / hematology / [other] / [other] + systemic / hematology / anisocytosis / anisocytosis + systemic / hematology / leukocyte (wbc) …
rat [5] = conditions: Prenatal developmental toxicity study, sprague dawley, Oral, Gavage/Intubation, dose end: 15 GD
mouse [6] = conditions: Subchronic oral toxicity in rodents, cd1, Feed, dose end: 3 month, group: systemic, systemic / clinical chemistry / albumin / albumin + systemic / clinical chemistry / bilirubin / total bilirubin + systemic / organ weight / …
rat [7] = conditions: Combined chronic toxicity/carcinogenicity; sprague dawley; Oral; Feed; dose end: 2 year; group: systemic; systemic / clinical chemistry / bilirubin / total bilirubin + systemic / hematology / lymphocyte / lymphocyte + systemic / hematology / …
rat [8] = conditions: Subchronic oral toxicity in rodents, sprague dawley, Feed, dose end: 90 day, group: systemic
mouse [9] = conditions: Carcinogenicity, cd1, Oral, Feed, dose end: 18 month, group: systemic
rat [10] = conditions: Multigenerational reproductive toxicity study, sprague dawley, Oral, Feed, dose end: 2 generation
dog [11] = conditions: Chronic toxicity; beagle; Oral; Feed; dose end: 1 year; group: systemic; systemic / pathology microscopic / kidney / fatty change + systemic / pathology microscopic / kidney / lipofuscin deposits + systemic / …
[12] = systemic / clinical chemistry / alanine aminotransferase (alt/sgpt) / alanine aminotransferase (alt/sgpt) + systemic / clinical chemistry / …
[13] = systemic / in life observation / clinical signs / lacrimation or red-colored tears + systemic / in life observation / clinical signs / …
[14] = systemic / clinical chemistry / [other] / [other] + systemic / clinical chemistry / albumin / albumin + systemic / clinical chemistry / …
[15] = systemic / in life observation / clinical signs / salivation
[16] = systemic / in life observation / body weight / body weight + systemic / in life observation / clinical signs / dialated pupils + systemic / …
[17] = systemic / in life observation / clinical signs / dialated pupils + systemic / in life observation / clinical signs / distended abdomens + …
[18] = group: developmental, developmental / developmental malformation / general / runts
[19] = group: developmental, developmental / developmental malformation / general / runts + developmental / developmental malformation / bone / detached + developmental…
[20] = group: maternal, systemic / in life observation / body weight / body weight gain + systemic / in life observation / food consumption / food consumption + …
[21] = group: developmental, developmental / developmental malformation / bone / full supernumerary + developmental / developmental malformation / bone / short …
[22] = group: maternal, systemic / in life observation / body weight / body weight gain
[23] = systemic / in life observation / body weight / body weight + systemic / in life observation / body weight / body weight gain
[24] = systemic / in life observation / body weight / body weight + systemic / in life observation / body weight / body weight gain + systemic / …
[25] = group: offspring, systemic / in life observation / body weight / offspring (pup) weight
[26] = group: parental, systemic / in life observation / body weight / body weight + systemic / in life observation / body weight / body weight gain
[27] = group: reproductive, reproductive / reproductive performance / fertility / fertility

In the case of `CSc1ccc(Oc2ccc(S(N)(=O)=O)cc2CN(C)C)cc1C`, the LOAEL (rat [1]; [12]) is reported as > 500 mg/kg/day, the NOAEL (rat [1]; [12]) is reported as ≥ 500 mg/kg/day and the LEL (rat [1]; [13]) is reported as 5 mg/kg/day. For the same compound, the NEL (rat [1]; [13]) was < 5 mg/kg/day, the LOAEL (rat [2]; [14]) was > 1000 mg/kg/day and the NOAEL (rat [2]; [14]) was ≥ 1000 mg/kg/day. The LEL (rat [2]; [15]) was 250 mg/kg/day, the NEL (rat [2]; [15]) was < 250 mg/kg/day and the LOAEL (dog [3]; [16]) was > 40 mg/kg/day. The NOAEL (dog [3]; [16]) was ≥ 40 mg/kg/day, the LEL (dog [3]; [17]) was 4 mg/kg/day and the NEL (dog [3]; [17]) was < 4 mg/kg/day.

Compound `COc1nc(C)nc(NC(=O)NS(=O)(=O)c2ccccc2CCC(F)(F)F)n1` [Prosulfuron] has an NEL (rabbit; [18]) of 100 mg/kg/day, an NOAEL (rabbit; [18]) of 100 mg/kg/day and an LEL (rabbit; [19]) of 200 mg/kg/day. For the same compound, the LOAEL (rabbit; [19]) was 200 mg/kg/day, the LOAEL (rabbit; group: maternal, systemic / in life observation / body weight / body weight gain + systemic / in life observation / food consumption / food consumption) was 100 mg/kg/day and the LEL (rabbit; [20]) was 100 mg/kg/day. It also gave an NEL (rabbit; [20]) of 20 mg/kg/day, an NOAEL (rabbit; [20]) of 20 mg/kg/day and an LEL (dog [4]) of 54 mg/kg/day. It also gave an LOAEL (dog [4]) of 54 mg/kg/day, an NEL (dog [4]) of 6.5 mg/kg/day and an NOAEL (dog [4]) of 6.5 mg/kg/day. The LEL (rat [5]; [21]) was 400 mg/kg/day, the LOAEL (rat [5]; [21]) was 400 mg/kg/day and the NEL (rat [5]; [21]) was 200 mg/kg/day. For the same compound, the NOAEL (rat [5]; [21]) was 200 mg/kg/day, the LEL (rat [5]; [22]) was 400 mg/kg/day and the LOAEL (rat [5]; [22]) was 400 mg/kg/day. It also gave an NEL (rat [5]; [22]) of 200 mg/kg/day, an NOAEL (rat [5]; [22]) of 200 mg/kg/day and an LEL (mouse [6]) of 69.3 mg/kg/day. For the same compound, the LOAEL (mouse [6]) was 69.3 mg/kg/day, the NEL (mouse [6]) was 2.01 mg/kg/day and the NOAEL (mouse [6]) was 2.01 mg/kg/day. The LEL (rat [7]) was 0.4 mg/kg/day, the LOAEL (rat [7]) was 79.9 mg/kg/day and the NEL (rat [7]) was < 0.4 mg/kg/day. The NOAEL (rat [7]) was 7.9 mg/kg/day, the LEL (rat [8]; [23]) was 31 mg/kg/day and the LOAEL (rat [8]; [23]) was 31 mg/kg/day. The NEL (rat [8]; [24]) was 3.1 mg/kg/day, the NOAEL (rat [8]; [24]) was 3.1 mg/kg/day and the LOAEL (mouse [9]; systemic / in life observation / body weight / body weight gain) was 508 mg/kg/day. The NOAEL (mouse [9]; systemic / in life observation / body weight / body weight gain + systemic / hematology / mean corpuscular hemoglobin concentration (mchc…) was 100 mg/kg/day, the LEL (mouse [9]; systemic / pathology microscopic / liver / hypertrophy) was 81.4 mg/kg/day and the NEL (mouse [9]; systemic / pathology microscopic / liver / hypertrophy + systemic / hematology / hematocrit (hct) / hematocrit (hct) + systemic / in life …) was 1.71 mg/kg/day. For the same compound, the LEL (rat [10]; [25]) was 136 mg/kg/day, the LOAEL (rat [10]; [25]) was 136 mg/kg/day and the NEL (rat [10]; [25]) was 13.3 mg/kg/day. The NOAEL (rat [10]; [25]) was 13.3 mg/kg/day, the LEL (rat [10]; [26]) was 136 mg/kg/day and the LOAEL (rat [10]; [26]) was 136 mg/kg/day. For the same compound, the NEL (rat [10]; [26]) was 13.3 mg/kg/day, the NOAEL (rat [10]; [26]) was 13.3 mg/kg/day and the LEL (rat [10]; [27]) was 278 mg/kg/day. The LOAEL (rat [10]; [27]) was > 278 mg/kg/day, the NEL (rat [10]; [27]) was 136 mg/kg/day and the NOAEL (rat [10]; [27]) was ≥ 278 mg/kg/day. For the same compound, the LEL (dog [11]) was 18.6 mg/kg/day, the LOAEL (dog [11]) was 18.6 mg/kg/day and the NEL (dog [11]) was 1.95 mg/kg/day. The NOAEL (dog [11]) was 1.95 mg/kg/day.
